Results as given in patent US9737525B2, “Small molecule activators of NRF2 pathway” (The General Hospital Corporation, priority 2013, dated 2017).
“Also recorded” adds a separate entry of the source.

Columns and labels:
[1] = biological target: human recombinant SIRT2 deacetylase (Homo sapiens (Human), UniProt Q8IXJ6); assay: Sirtuin biochemical deacetylation assay, SIRT2; conditions: for SIRT2 inhibition: dose-response
Method: Modulation of sirtuin activity by compounds was assessed using the Flour de Lys fluorescent biochemical assay in a 96-well format as described (Outeiro et al., 2007). The deacetylation reaction was performed at 37° C. for an hour in the presence of human recombinant enzymes: SIRT1 (BioMol-SE-239) 1 unit/per reaction, SIRT2 (BioMol-SE-251) 5 units/per reaction, or SIRT3 (BioMol-SE-270) 5 units/per reaction, compound of interest, standard buffer, 50 μM substrate, and 500 μM NAD^+ according to the manufacturer's protocol. […]

[2] = tested on: NQO1; assay: Quantitative NQO1 inducer bioassay in Hepa1c1c7 cells; type: cell-based, murine; conditions: for Effect of GSH pre-incubation on NQO1 inducer potency: 1 mM GSH at 37° C. for 30 min before cell treatment; for CD value (Concentration which Doubles the specific activity of NQO1): Hepa1c1c7 cells; for CD value (Concentration which Doubles the specific activity of NQO1) / EC (2-fold NQO1 activity): 48 hr exposure; for EC (2-fold NQO1 activity): Mus musculus, Hepa-1c1c7, Table 3, Concentration which Doubles the specific activity of NQO1, read-out: NQD1 CD
Method: Cells grown in 96-well plates were exposed to serial dilutions of each compound for 48 hr, and the NQO1 enzyme activity was determined in cell lysates. Results are shown as average values of 8 replicate wells. The standard deviation in each case was less than 5%.
Next, using a quantitative NQO1 inducer bioassay in murine Hepa1c1c7 cells and the CD value (Concentration which Doubles the specific activity of NQO1) as a measure of potency (see Table 2), the activities of the MIND4 analogs were tested and ranked.
Inducer potency was quantified by use of the NQO1 bioassay in Hepa1c1c7 cells as described [Prochaska, 1988]. To examine the effect of GSH on inducer potency, compounds were incubated in cell culture medium containing 1 mM GSH at 37° C. for 30 min before cell treatment.

[3] = tested on: BV2 microglia cells; assay: Transcriptional expression profiling in LPS-induced microglia BV2 cells (qRT-PCR); type: cell-based, mouse
Method: To further validate the NRF2 activating properties of MIND4, effects of the compound on repression of inflammatory responses were tested in LPS-induced BV2 microglia cells, a model in which the influence of NRF2 signaling on inflammation has been well established (Koh et al., 2011). A BV2 mouse microglia cell line was maintained in DMEM media supplemented with 10% FBS (Sigma) and antibiotic-antimycotic mix. Cells were seeded into 12 well plates at the density of 3×10^5 cells/well. Cells were treated with the indicated concentrations of MIND4, MIND4-17, and MIND4A compounds for 24 hr. Cells were then stimulated with 10 ng/ml LPS (E. coli) for 2 hr. Total RNA was isolated using ZR Miniprep kit (Zymo Research). 1 μg of total RNA was used to prepare cDNA. Gene expression was analyzed using VeriQuest SYBR green assay in Roche480 thermocycler. The sequences of gene-specific primers for qPCR were as follows: […]
Immortalized bone marrow derived mouse macrophages (iBMMs) and BV2 mouse microglia cell line were used in the present study. Both cell types were maintained in DMEM media supplemented with 10% FBS and antibiotic-antimycotic mix. Cells were seeded into 12 well plates at the density of 3×10^5 cells/well. Cells were treated with the indicated concentrations of MIND4-17 compounds for 24 hr. Cells were then stimulated with 10 ng/ml LPS (E. coli, Sigma) for 2 hr. Total RNA was isolated using ZR Miniprep kit (Zymo Research). […] of total RNA was used to prepare cDNA. Gene expression was analyzed using VeriQuest SYBR green assay (Affymetrix) in Roche480 thermocycler. Primer sequences are as described above (see Example 9).

[4] = tested on: Nrf2-responsive proteins NQO1 and GCLM; assay: NRF2 responses in wild type and mutant SOD1 (G93A) primary astroglia; type: cell-based; conditions: wild type and mutant SOD1 (G93A) mouse primary astroglia
Description: Primary glia was derived from wild type and mutant SOD1 (G93A) mice and treated with MIND4 and MIND4-17 at indicated doses. The expression NRF2 responsive NQO1 and GCLM proteins were detected by immunochemistry. […] Importantly, compounds had no effects on human mutant SOD1 transgene, expressing in mice from human promoter.

[5] = tested on: NRF2/KEAP1 in MEFs; assay: NQO1 and NRF2 levels in mouse embryonic fibroblasts (MEFs), western blot; type: cell-based; conditions: wild-type MEFs; for Accumulation of total NRF2 protein: 5 hr exposure
Method: Mouse embryonic fibroblasts (MEFs) from wild-type (WT), NRF2-knockout (NRF2-KO) or KEAP1-knockout (KEAP1-KO) mice, were cultured in plastic dishes (Invitrogen) coated for 30 min with 0.1% (w/v) gelatin before use. The cell culture medium was Iscoves Modified Dulbecco's Medium (with L-glutamine) supplemented with human recombinant epidermal growth factor (10 ng/mL), 1× insulin/transferrin/selenium, and 10% (v/v) heat-inactivated FBS, all from Invitrogen. Cells were maintained at 5% CO2 in air at 37° C. For experiments, cells (250,000 per well) were grown for 24 hr on 6-well plates, and then treated with solvent control (0.1% DMSO, v/v) or compounds for either 5 hr or 24 hr. For western blot analysis, cells were washed twice with ice-cold phosphate buffered saline (PBS) and lysed in 150 μl of RIPA buffer (50 mM Tris-Cl pH 7.5, 150 mM NaCl, 0.5% sodium deoxycholate, 1% NP-40, 0.1% SDS and 1 mM EDTA), containing 1 protease inhibitor cocktail tablet (Roche) per 10 ml of buffer. Cell debris were removed by centrifugation at 16,300×g for […] at 4° C., and protein concentrations were determined by the BCA assay (Thermo). Proteins were resolved by SDS/PAGE, transferred to immobilon-P membranes, and probed with specific antibodies against NQO1 (1:1000) or NRF2 (1:1000). Equal loading was confirmed by probing the blots with an antibody against β-actin (mouse monoclonal, 1:10000), from Sigma, Dorset, United Kingdom.
For nuclear-cytoplasmic separation, WT MEFs (500,000 per dish) were grown for 24 hr on 6-cm plates, and then treated with solvent control (0.1% DMSO, v/v) or 0.5 μM MIND4-17. At the end of each treatment time, cells were placed on ice and washed twice with ice-cold PBS and subsequently lysed in buffer A [10 mM KCl, 5 mM MgCl2, 50 mM Tris-HCl (pH 7.5), 0.5% Nonidet P-40 (Roche), 1 mM dithioretitol (DTT) (Sigma), containing one protease inhibitor tablet and one phosphatase inhibitor tablet (both from Roche) per each 10 ml of buffer]. The lysates were subjected to centrifugation (Spectrafuge 24D, Labnet) at 1,000×g for 5 min at 4° C. The supernatant (cytoplasmic fraction) was transferred to a fresh Eppendorf tube. The pellet (nuclear fraction) was washed three times in buffer A before being dissolved in buffer B [2% SDS, 150 mM NaCl, 65 mM Tris-HCl (pH 8.0)] and sonicated for 30 sec. Finally, the lysates were subjected to western blot analysis. The blots were probed with antibodies against GAPDH (rabbit polyclonal, 1:5000) and Lamin A/C (rabbit polyclonal, 1:1000, Gene Tex, Calif., United States of America) to confirm fraction purity and equal protein loading.

[6] = BV2 cells, dose-dependent, 24 hr

Sequence of human recombinant SIRT2 deacetylase (Q8IXJ6 whole entry): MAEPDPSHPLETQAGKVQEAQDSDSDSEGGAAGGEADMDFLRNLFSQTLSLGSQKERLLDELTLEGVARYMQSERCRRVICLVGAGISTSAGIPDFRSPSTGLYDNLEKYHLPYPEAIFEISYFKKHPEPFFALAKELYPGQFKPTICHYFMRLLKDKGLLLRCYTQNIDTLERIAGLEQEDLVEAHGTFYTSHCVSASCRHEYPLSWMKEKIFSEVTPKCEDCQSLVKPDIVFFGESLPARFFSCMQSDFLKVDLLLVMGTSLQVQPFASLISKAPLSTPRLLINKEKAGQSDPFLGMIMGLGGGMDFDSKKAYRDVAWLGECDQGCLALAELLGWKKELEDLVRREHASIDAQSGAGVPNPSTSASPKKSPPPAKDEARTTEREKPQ

Row | Compound | IC50 ([1]; Table 1) [µM] | IC50 ([1]; Table 3) [µM] | SIRT2 inhibition [1] | Effect of GSH pre-incubation on NQO1 inducer potency [2] | CD value (Concentration which Doubles the specific activity of NQO1) [2] [µM] | EC (2-fold NQO1 activity) [2] [µM] | TNFα and IL-6 gene expression ([3]; 3 μM 24 hr pre-treatment, LPS-activated BV2 cells) | IL-1β and MCP-1 transcription ([3]; 3 μM 24 hr pre-treatment, basal and LPS-induced BV2 cells) | Induction of Nrf2-responsive proteins NQO1 and GCLM [4] | Accumulation of total NRF2 protein [5] | Expression of inflammatory factors TNFα, IL-6, IL-1β and MCP-1 [3, 6] | Transcription of GCLM and NQO1 [3, 6] | NRF2 levels in nuclear and cytoplasmic fractions ([5]; 0.5 μM, from 30 min, elevated for at least 5 hr)
1 | O=[N+]([O-])c1ccc(Sc2nnc(COc3ccccc3)n2-c2ccccc2)c2ncccc12 [MIND4, 5-nitro-8-{[5-(phenoxymethyl)-4-phenyl-4H-1,2,4-triazol-3-yl]thio}quinoline] | 1.7 | 3.5 | dose-dependent and selective inhibition of human recombinant SIRT2 deacetylase | much less pronounced effect | 1.3 | 1.3 | correspondingly reduced | repression of both basal and LPS-induced transcription | dose-dependent induction | to much lesser extent | – | – | –
2 | O=[N+]([O-])c1ccc(Sc2nnc(COc3ccccc3)n2-c2ccccc2)nc1 [MIND4-17] | – | > 50 | no inhibitory activity; also recorded: no detectable SIRT2 inhibition activity | drastically reduced the potency | 0.15 | 0.15 | – | – | dose-dependent induction | readily detectable | repressed transcriptional expression of inflammatory factors | increased transcription of the canonical NRF2 target genes GCLM and NQO1 | increase of NRF2 levels was detected
